In US20070179060A1, “6-(Poly-substituted aryl)-4-aminopicolinates and their use as herbicides” (priority 2006, published 2007):

Columns and labels:
Type in all cases: in vivo
[1] = tested on: lambsquarter (Chenopodium album); assay: Postemergence herbicidal activity; settings: post-emergent, 140 g ai/ha, after 14 days; for pest or weed control at 140 g/ha: Chenopodium album, post-emergence, 336 h, read-out: % Control CHEAL
Method in brief: (§1)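 Compounds were applied postemergence by track sprayer delivering 187 L/ha, using a mixed organic/aqueous carrier containing crop oil concentrate and surfactant; solvent-blank sprays served as controls. Test plants were at the first to second true leaf stage after 7-21 days' greenhouse growth, were sub-irrigated after treatment, and were evaluated by probit analysis.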

[2] = tested on: velvetleaf (Abutilon theophrasti); assay: Postemergence herbicidal activity; settings: post-emergent, 140 g ai/ha, after 14 days; for pest or weed control at 140 g/ha: Abutilon theophrasti, post-emergence, 336 h, read-out: % Control ABUTH
Method in brief: as §1

[3] = tested on: redroot pigweed (Amaranthus retroflexus); assay: Postemergence herbicidal activity; settings: post-emergent, 140 g ai/ha, after 14 days; for pest or weed control at 140 g/ha: Amaranthus retroflexus, post-emergence, 336 h, read-out: % Control AMARE
Method in brief: as §1

[4] = tested on: lambsquarter (Chenopodium album); assay: Preemergence herbicidal activity; settings: Chenopodium album, pre-emergence, 480 h, pre-emergent, after 20-22 days, read-out: % Control CHEAL; for pest or weed control at 140 g/ha: 140 g ai/ha
Method in brief: (§2)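 Seeds sown in 70:30 loam (pH about 8.1, about 1.5% organic matter) and sand mix, then sprayed preemergence at 187 L/ha with a track sprayer; controls received solvent blank. Pots kept in greenhouse, about 15 h photoperiod, about 23-29° C. day and 22-28° C. night, top-irrigated.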

[5] = tested on: velvetleaf (Abutilon theophrasti); assay: Preemergence herbicidal activity; settings: Abutilon theophrasti, pre-emergence, 480 h, pre-emergent, after 20-22 days, read-out: % Control ABUTH; for pest or weed control at 140 g/ha: 140 g ai/ha
Method in brief: as §2

[6] = tested on: redroot pigweed (Amaranthus retroflexus); assay: Preemergence herbicidal activity; settings: Amaranthus retroflexus, pre-emergence, 480 h, pre-emergent, after 20-22 days, read-out: % Control AMARE; for pest or weed control at 140 g/ha: 140 g ai/ha
Method in brief: as §2

[7] = tested on: Galium aparine; assay: Postemergence herbicidal activity in cereal crops; settings: Galium aparine, post-emergence, 480 h, post-emergent, after 20-22 days, read-out: % Control GALAP; for pest or weed control at 17.5 g/ha: 17.5 g ai/ha; for pest or weed control at 35 g/ha: 35 g ai/ha
Method in brief: (§3)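 Greenhouse plants (about 18 °C day/17 °C night, ~14 h photoperiod) were grown 7-36 days to the second or third true leaf stage. They were then sprayed overhead at 187 L/ha with compound in acetone/water/isopropanol/DMSO/crop oil/Triton X-77 carrier. Blank-sprayed plants served as controls, and watering was by sub-irrigation to avoid wash-off.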

[8] = tested on: Papaver rhoeas; assay: Postemergence herbicidal activity in cereal crops; settings: Papaver rhoeas, post-emergence, 480 h, post-emergent, after 20-22 days, read-out: % Control PAPRH; for pest or weed control at 17.5 g/ha: 17.5 g ai/ha; for pest or weed control at 35 g/ha: 35 g ai/ha
Method in brief: as §3

[9] = tested on: wheat (Triticum aestivum); assay: Postemergence herbicidal activity in cereal crops; settings: Triticum aestivum, post-emergence, 480 h, crop, post-emergent, after 20-22 days, read-out: % Control TRZAS; for plant injury at 17.5 g/ha: 17.5 g ai/ha; for plant injury at 35 g/ha: 35 g ai/ha
Method in brief: as §3

[10] = tested on: Veronica persica; assay: Postemergence herbicidal activity in cereal crops; settings: Veronica persica, post-emergence, 480 h, post-emergent, after 20-22 days, read-out: % Control VERPE; for pest or weed control at 17.5 g/ha: 17.5 g ai/ha; for pest or weed control at 35 g/ha: 35 g ai/ha
Method in brief: as §3

[11] = tested on: Lamium purpureum; assay: Postemergence herbicidal activity in cereal crops; settings: Lamium purpureum, post-emergence, 480 h, post-emergent, after 20-22 days, read-out: % Control LAMPU; for pest or weed control at 17.5 g/ha: 17.5 g ai/ha; for pest or weed control at 35 g/ha: 35 g ai/ha
Method in brief: as §3

[12] = tested on: barley (Hordeum vulare); assay: Postemergence herbicidal activity in cereal crops; settings: Hordeum, post-emergence, 480 h, crop, post-emergent, after 20-22 days, read-out: % Control HORVS; for pest or weed control at 17.5 g/ha: 17.5 g ai/ha; for pest or weed control at 35 g/ha: 35 g ai/ha
Method in brief: as §3

Compound	pest or weed control at 140 g/ha [1]	pest or weed control at 140 g/ha [2]	pest or weed control at 140 g/ha [3]	pest or weed control at 140 g/ha [4]	pest or weed control at 140 g/ha [5]	pest or weed control at 140 g/ha [6]	pest or weed control at 17.5 g/ha [7]	pest or weed control at 17.5 g/ha [8]	plant injury at 17.5 g/ha [9]	pest or weed control at 17.5 g/ha [10]	pest or weed control at 17.5 g/ha [11]	pest or weed control at 17.5 g/ha [12]	other results
COC(=O)c1nc(-c2ccc(Br)c(OC)c2F)cc(N)c1Cl [Compound 27, 4-amino-6-(4-bromo-2-fluoro-3-methoxyphenyl)-3-chloro-pyridine-2-carboxylic acid methyl ester]	100%	100%	90%	90%	100%	100%	99%	100%	5%	50%	100%	5%	
COC(=O)c1nc(-c2ccc(Cl)c(OC)c2F)cc(N)c1Cl [Compound 42, 4-Amino-3-chloro-6-(4-chloro-2-fluoro-3-methoxyphenyl)pyridine-2-carboxylic acid methyl ester]	100%	100%	100%	100%	100%	100%	99%	99%	5%	60%	100%	5%	
COC(=O)c1nc(-c2ccc(Cl)c(OC)c2Cl)cc(N)c1Cl [Compound 44, 4-Amino-3-chloro-6-(2,4-dichloro-3-methoxyphenyl)pyridine-2-carboxylic acid methyl ester]	100%	100%	100%	95%	95%	30%							pest or weed control at 35 g/ha [7]: 65%; pest or weed control at 35 g/ha [8]: 90%; plant injury at 35 g/ha [9]: 10%; pest or weed control at 35 g/ha [10]: 60%; pest or weed control at 35 g/ha [11]: 99%; pest or weed control at 35 g/ha [12]: 5%
COC(=O)c1nc(-c2c(F)cc(Cl)c(OC)c2F)cc(N)c1Cl [Compound 58, 4-Amino-3-chloro-6-(4-chloro-2,6-difluoro-3-methoxyphenyl)pyridine-2-carboxylic acid, methyl ester]	100%	100%	100%	100%	100%	100%	100%	99%	0%	60%	100%	0%	
COC(=O)c1nc(-c2ccc(F)c(OC)c2F)cc(N)c1Cl [Compound 70, 4-Amino-3-chloro-6-(2,4-difluoro-3-methoxyphenyl)pyridine-2-carboxylic acid, methyl ester]	100%	100%	100%	100%	100%	100%	99%	99%	0%	60%	100%	0%	
COC(=O)c1nc(-c2c(F)cc(Br)c(OC)c2F)cc(N)c1Cl [Compound 77, 4-Amino-6-(4-bromo-2,6-difluoro-3-methoxyphenyl)-3-chloropyridine-2-carboxylic acid, methyl ester]	100%	100%	100%	100%	100%	100%	99%	99%	0%	65%	100%	0%	
COc1c(Cl)ccc(-c2cc(N)c(Cl)c(C(=O)O)n2)c1F [Compound 100, 4-Amino-3-chloro-6-(4-chloro-2-fluoro-3-methoxyphenyl)pyridine-2-carboxylic acid]	100%	100%	100%	100%	100%	100%	90%	95%	10%	65%	100%	5%	
COc1c(Cl)ccc(-c2cc(N)c(Cl)c(C(=O)O)n2)c1Cl [Compound 103, 4-Amino-3-chloro-6-(2,4-dichloro-3-methoxyphenyl)pyridine-2-carboxylic acid]													% Control CHEAL [1]: 100%; % Control ABUTH [2]: 95%; % Control AMARE [3]: 100%; pest or weed control at 123 g/ha ([4]; 123 g ai/ha): 100%; pest or weed control at 123 g/ha ([5]; 123 g ai/ha): 90%; pest or weed control at 123 g/ha ([6]; 123 g ai/ha): 100%; pest or weed control at 35 g/ha [7]: 60%; pest or weed control at 35 g/ha [8]: 100%; plant injury at 35 g/ha [9]: 0%; pest or weed control at 35 g/ha [10]: 75%; pest or weed control at 35 g/ha [11]: 95%; pest or weed control at 35 g/ha [12]: 0%
